Test results from patent US8163781B2, “Bi-aryl aminotetralines” (Hoffman-La Roche Inc., priority 2008, dated 2012).

target: T1, human CRTH2 (Homo sapiens, UniProt Q9Y5Y4); experiment: Human CRTH2 Receptor Binding Assay; settings: whole cell binding, CHO-K1 cells expressing human CRTH2, 20 nM [3H]ramatroban as competing radioligand
T1 construct: expressed in transfected cells
T1 sequence (Q9Y5Y4 1-395): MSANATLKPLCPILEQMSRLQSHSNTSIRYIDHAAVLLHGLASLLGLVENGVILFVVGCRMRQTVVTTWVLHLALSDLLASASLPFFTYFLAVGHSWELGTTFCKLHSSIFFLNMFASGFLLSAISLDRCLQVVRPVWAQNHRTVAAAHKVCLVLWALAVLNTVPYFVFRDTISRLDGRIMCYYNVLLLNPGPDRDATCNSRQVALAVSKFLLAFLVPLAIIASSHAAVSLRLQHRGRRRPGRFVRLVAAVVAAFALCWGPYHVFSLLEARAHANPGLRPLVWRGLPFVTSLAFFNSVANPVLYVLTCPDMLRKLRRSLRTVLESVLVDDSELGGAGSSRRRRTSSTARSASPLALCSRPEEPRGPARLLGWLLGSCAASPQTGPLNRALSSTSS
Source text: A whole cell receptor binding assay using [^3H]ramatroban as the competing radioactive ligand was employed to evaluate the compound binding activity to human CRTH2. The radioactive ligand [^3H]ramatroban was synthesized according to Sugimoto et. al. (Eur. J. Pharmacol. 524, 30-37, 2005) to a specific activity of 42 Ci/mmol.
A cell line stably expressing human CRTH2 was established by transfecting CHO-K1 cells with two mammalian expression vectors that harbored human CRTH2 and G-alpha16 cDNAs, respectively, using FuGene® 6 transfection reagent (from Roche). Stable clones expressing CRTH2 were selected by staining each clone with BM16 (BD Pharmingen™ from BD Biosciences, a division of Becton, Dickinson and Company), which is a rat monoclonal antibody to human CRTH2. The cells were maintained as monolayer cultures in Ham's F-12 medium containing 10% fetal bovine serum, 100 units/mL penicillin, 100 μg/mL streptomycin, 2 mM glutamine, 0.5 mg/mL G418 (geneticin) for CRTH2, and 0.2 mg/mL hygromycin-B (for G-alpha 16). For whole cell receptor binding assay, the monolayer cells were rinsed once with PBS (phosphate buffered saline), dissociated using ethylenediaminetetraacetate (Versene™ EDTA from the Lonza Inc.), and suspended in PBS containing 10 mM MgCl2 and 0.06% BSA (bovine serum albumin) at 1.5×10^6 cells/mL.
The binding reactions (0.2 mL) were performed in 96-well plates at room temperature in PBS containing 1.5×10^5 cells, 10 mM MgCl2, 0.06% BSA, 20 nM [^3H]ramatroban, and test compound at various concentrations. After 1 hour of binding reactions, the cells were harvested on GF™/B filter microplates (microtiter plates with embedded glass fiber from PerkinElmer, Inc.) and washed 5 times with PBS using a Filtermate™ Harvester (a cell harvester that harvests and washes cells from microplates from PerkinElmer, Inc.). The radioactivities bound to the cells were determined using a microplate scintillation counter (TopCount® NXT, from PerkinElmer, Inc.) after adding 50 μL of Microscint™ 20 scintillation fluid (from PerkinElmer, Inc.) to each well of the filter plates. The radioactivity from non-specific binding was determined by replacing compound with 10 μM of 15(R)-15-methyl PGD2 (from Cayman Chemical Company) in the reaction mixtures. The radioactivity bound to the cells in the absence of compound (total binding) was determined by replacing compound with 0.25% of DMSO (dimethyl sulfoxide) in the reaction mixture. Specific binding data were obtained by subtracting the radioactivity of non-specific binding from each binding data.
The IC50 value is defined as the concentration of the tested compound that is required for 50% inhibition of total specific binding. In order to calculate the IC50 value, the percent inhibition data were determined for 7 concentrations for each compound. The percent inhibition for a compound at each concentration was calculated according to the following formula, [1-(specific binding in the presence of compound)/(total specific binding)]×100. The IC50 value was then obtained by fitting the percent inhibition data to a sigmoidal dose-response (4 parameter logistic) model in the XLfit® software Excel add-in program [from ID Business Solutions Ltd., model 205, where F(x)=(A+(B−A)/(1+((C/x)^D)))].

First: Cc1cc(C)cc(Oc2ncc(S(=O)(=O)NC3CCCc4c(OCC(=O)O)cccc43)cc2Br)c1 (centres unmarked) [Example 2-15, {5-[5-Bromo-6-(3,5-dimethyl-phenoxy)-pyridine-3-sulfonylamino]-5,6,7,8-tetrahydro-naphthalen-1-yloxy}-acetic acid]
Second: O=C(O)COc1cccc2c1CCCC2NS(=O)(=O)c1ccc(Oc2ccccc2)nc1 (centres unmarked) [Example 1-6, [5-(6-Phenoxy-pyridine-3-sulfonylamino)-5,6,7,8-tetrahydro-naphthalen-1-yloxy]-acetic acid]
The IC50 of the first is 2.5-fold lower: 75.2 nM for the first, 188 nM for the second. The first is the more potent here.

O=C(O)COc1cccc2c1CCC[C@H]2NS(=O)(=O)c1ccc(-c2ccc(F)cc2)cc1 [Example 1-7, [(R)-5-(4′-Fluoro-biphenyl-4-sulfonylamino)-5,6,7,8-tetrahydro-naphthalen-1-yloxy]-acetic acid] and CC(=O)c1ccc(-c2ccc(S(=O)(=O)N[C@@H]3CCCc4c(OCC(=O)O)cccc43)cc2)cc1 [Example 1-10, [(R)-5-(4′-Acetyl-biphenyl-4-sulfonylamino)-5,6,7,8-tetrahydro-naphthalen-1-yloxy]-acetic acid] are within 1.5-fold of each other in IC50: 52.6 nM for the first, 67.4 nM for the second.

With O=C(O)COc1cccc2c1CCC[C@H]2NS(=O)(=O)c1ccc(Oc2ccc(F)cc2)c(C(F)(F)F)c1 [Example 2-42, {(R)-5-[4-(4-Fluoro-phenoxy)-3-trifluoromethyl-benzenesulfonylamino]-5,6,7,8-tetrahydro-naphthalen-1-yloxy}-acetic acid] the IC50 was 11.2 nM.
